A compilation of properties of binary mixtures (doi:10.1021/jp071051m)

Experiment: xn = mol fraction of the nth substance listed
Settings: 298.15 K, 101 kPa

CCCC[n+]1ccn(C)c1.O=C([O-])C(F)(F)F + CC#N
Settings	electrical conductivity [S/m]	viscosity [mPa·s]
x2 = 0	0.455	52.9
x2 = 0.0798	0.562	42.7
x2 = 0.1769	0.699	31.7
x2 = 0.3539	1.05	17.4
x2 = 0.4443	1.32	12.1
x2 = 0.547	1.69	7.61
x2 = 0.6553	2.19	4.38
x2 = 0.7649	2.76	2.27
x2 = 0.8457	3.06	1.19
x2 = 0.8802	3.09	1.09

CCCC[n+]1ccn(C)c1.F[P-](F)(F)(F)(F)F + CC(C)=O
Settings	electrical conductivity [S/m]	viscosity [mPa·s]
x2 = 0	0.157	260
x2 = 0.1006	0.256	148
x2 = 0.1935	0.389	89
x2 = 0.3033	0.612	48.4
x2 = 0.3988	0.89	27.4
x2 = 0.6016	1.81	7.36
x2 = 0.6992	2.38	3.76
x2 = 0.8433	3.11	1.34
x2 = 0.8853	3.12	1.02

ClCCl + CCCC[n+]1ccn(C)c1.F[P-](F)(F)(F)(F)F
Settings	electrical conductivity [S/m]	viscosity [mPa·s]
x1 = 0.0753	0.213	180
x1 = 0.163	0.294	129
x1 = 0.3361	0.533	58.2
x1 = 0.5384	0.97	18.7
x1 = 0.6462	1.24	9.5
x1 = 0.738	1.43	5
x1 = 0.8242	1.42	2.57
x1 = 0.8678	1.3	1.82

CCCC[n+]1ccn(C)c1.F[P-](F)(F)(F)(F)F + CCOC(C)=O
Settings	electrical conductivity [S/m]	viscosity [mPa·s]
x2 = 0	0.157	260
x2 = 0.0883	0.229	167
x2 = 0.1793	0.326	101
x2 = 0.4691	0.771	21
x2 = 0.5703	0.96	11.3
x2 = 0.6738	1.1	5.69
x2 = 0.8339	0.96	2.07

CCCC[n+]1ccn(C)c1.O=C([O-])C(F)(F)F + ClC(Cl)Cl
Settings	electrical conductivity [S/m]	viscosity [mPa·s]
x2 = 0	0.455	52.9
x2 = 0.0918	0.507	46.4
x2 = 0.1815	0.558	40.4
x2 = 0.2793	0.618	33.7
x2 = 0.3861	0.692	25.9
x2 = 0.482	0.766	19.3
x2 = 0.5804	0.85	13
x2 = 0.6467	0.89	9.7
x2 = 0.6812	0.9	7.85
x2 = 0.729	0.89	6.06
x2 = 0.7847	0.826	4.02
x2 = 0.8677	0.603	2.02

CCCC[n+]1ccn(C)c1.F[P-](F)(F)(F)(F)F + ClCCl
x2 = 0
Settings	electrical conductivity [S/m]	viscosity [mPa·s]
–	0.157	260

CCCC[n+]1ccn(C)c1.O=C([O-])C(F)(F)F + O
Settings	electrical conductivity [S/m]	viscosity [mPa·s]
x2 = 0	0.455	52.9
x2 = 0.1093	0.543	46.3
x2 = 0.197	0.619	40.9
x2 = 0.2888	0.713	35.5
x2 = 0.396	0.88	29.2
x2 = 0.4921	1.07	23.8
x2 = 0.5897	1.34	18.7
x2 = 0.6918	1.72	13.6
x2 = 0.7927	2.38	9
x2 = 0.884	3.14	5.13
x2 = 0.9195	3.34	3.67

CCCC[n+]1ccn(C)c1.F[P-](F)(F)(F)(F)F + c1ccncc1
Settings	electrical conductivity [S/m]	viscosity [mPa·s]
x2 = 0	0.157	260
x2 = 0.0964	0.222	161
x2 = 0.1929	0.308	102
x2 = 0.291	0.435	63.4
x2 = 0.3899	0.599	38
x2 = 0.5922	1.11	12.1
x2 = 0.6978	1.43	6.35
x2 = 0.7695	1.63	3.73
x2 = 0.8372	1.73	2.42
x2 = 0.8781	1.68	1.94
